Here are results for 45 molecules from ChEMBL document CHEMBL3351469, “Structure-activity relationships (SAR) and structure-kinetic relationships (SKR) of bicyclic heteroaromatic acetic acids as potent CRTh2 antagonists III: the role of a hydrogen-bond acceptor in long receptor residence times” (Bioorg Med Chem Lett, 2014).

The target in test [1] is T1, Prostaglandin D2 receptor 2 (Homo sapiens, UniProt Q9Y5Y4).
T1 sequence (Q9Y5Y4 whole entry): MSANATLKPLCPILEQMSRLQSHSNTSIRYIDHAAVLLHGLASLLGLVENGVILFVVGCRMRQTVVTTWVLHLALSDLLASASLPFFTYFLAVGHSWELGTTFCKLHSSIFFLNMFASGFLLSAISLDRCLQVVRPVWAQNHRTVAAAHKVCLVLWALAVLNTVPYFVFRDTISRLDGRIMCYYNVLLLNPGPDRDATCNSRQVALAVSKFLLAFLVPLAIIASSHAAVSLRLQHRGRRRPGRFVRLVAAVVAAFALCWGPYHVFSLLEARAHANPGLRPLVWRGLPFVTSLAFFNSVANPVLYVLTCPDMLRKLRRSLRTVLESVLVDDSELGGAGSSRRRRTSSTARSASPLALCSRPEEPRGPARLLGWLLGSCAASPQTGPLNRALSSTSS
The test is described as follows: Antagonist activity at CRTh2 (unknown origin) stably expressed in PGD2-stimulated CHO.K1 cells preincubated for 1 hr by radio-labelled [35S]-GTPgammaS binding assay. The format is functional, cell-based. For orientation: Binding of GTPγS marks nucleotide exchange on a G protein.

Test [2] deals with T2, Prostaglandin D2 receptor 2 (Homo sapiens) (UniProt Q9Y5Y4).
T2 sequence (whole entry): T1 sequence (Q9Y5Y4 whole entry)
The following applies: CHO.K1.
Description: Antagonist activity at CRTh2 (unknown origin) stably expressed in PGD2-stimulated CHO.K1 cells assessed as dissociation half-life at 10 times IC50 after 1 hr preincubation by radio-labelled [35S]-GTPgammaS binding assay

Test [3] addresses T2, Prostaglandin D2 receptor 2 (Homo sapiens). The test is described as follows: Antagonist activity at CRTh2 (unknown origin) stably expressed in PGD2-stimulated CHO.K1 cells assessed as dissociation half-life at 10 times IC50 after 1 hr preincubation measured at 28 hrs after washout by radio-labelled [35S]-GTPgammaS binding assay. It is filed as functional, cell-based.

What is called IC50 is the concentration that inhibits the measured activity by half. Regarding `O=C(O)Cn1cc(-c2ccc(C(F)(F)F)cc2Cc2ocnc2C2CC2)c2cc(F)ccc21`, the IC50 in test [1] (read-out: IC50) worked out at 2600 nM.

With `Cc1ccc2c(CC(=O)O)cn(-c3ccc(Cl)cc3Cc3c(C4CC4)noc3C3CC3)c2n1`, the IC50 in test [1] (read-out: IC50) was determined as 6 nM. For the same molecule, in test [2], the T1/2 was determined as 22 h.

Turning to `Cc1nnc(C2CC2)n1Cc1cc(C(F)(F)F)ccc1-c1cn(CC(=O)O)c2ccc(F)cc12`, the IC50 in test [1] (read-out: IC50) was determined as 6 nM. Moreover, in test [2], the T1/2 was found to be 20 h.

In the case of `CCN(Cc1cc(C(F)(F)F)ccc1-c1cc(CC(=O)O)ccc1OC)C(=O)C1CC1`, in test [1] (read-out: IC50), the IC50 amounted to 14 nM. The same molecule showed a T1/2 in test [2] of 2 h.

As to `Cc1ccc(-n2cc(CC(=O)O)c3ccc(C)nc32)c(Cc2ccnn2Cc2ccccc2)c1`, in test [1] (read-out: IC50), the IC50 is 1000 nM.

Consider `COc1ccc(CC(=O)O)cc1-c1ccc(C(F)(F)F)cc1Cn1ccccc1=O`, for which the IC50 result in test [1] (cho.k1) is given as “Not Active”.

Turning to `Cc1ccc2c(CC(=O)O)cn(-c3ccc(F)cc3Cc3c(C)noc3C3CC3)c2n1`, the IC50 in test [1] (read-out: IC50) was 2 nM. The molecule also returned a T1/2 in test [2] of 6 h.

For the molecule `Cc1noc(C2CC2)c1Cc1cc(C(F)(F)F)ccc1-c1cn(CC(=O)O)c2ccc(C(F)(F)F)nc12`, the half-maximal inhibitory concentration (IC50) in test [1] (read-out: IC50) came out at 23 nM. In addition, in test [2], the T1/2 amounted to 25 h.

As for `CCCc1nc2ccccc2n1Cc1ccccc1-n1cc(CC(=O)O)c2ccc(C)nc21`, the IC50 in test [1] (read-out: IC50) stood at 51 nM. The same molecule showed a T1/2 in test [2] of 0.6 h.

Consider `Cc1ccc2c(CC(=O)O)cn(-c3ccc(C(F)(F)F)cc3CSC(C)(C)C)c2n1`, for which the IC50 result in test [1] (cho.k1) is recorded as “Not Active”.

Consider `Cc1cnn(C)c1Cc1cc(C(F)(F)F)ccc1-c1cn(CC(=O)O)c2ccc(F)cc12`, for which, in test [1] (read-out: IC50), the IC50 was 64 nM. In test [2], this molecule registered a T1/2 of 2.5 h.

`Cc1noc(C2CC2)c1Cc1cc(Cl)ccc1-n1cc(CC(=O)O)c2ccc(Cc3ccccc3)nc21`: the IC50 in test [1] (read-out: IC50) worked out at 7 nM. For the same molecule, in test [3], the T1/2 is 42 h.

`CCN(Cc1cc(C(=O)NCCc2ccccc2)ccc1-n1cc(CC(=O)O)c2ccc(C)nc21)C(=O)C1CC1`: the IC50 in test [1] (read-out: IC50) turned out to be 8 nM. The molecule also returned a T1/2 in test [2] of 11 h.

`Cc1ccc(-n2cc(CC(=O)O)c3ccc(C)nc32)c(Cn2c(C)nnc2C)c1`: the IC50 in test [1] (read-out: IC50) came out at 16 nM. Also, the T1/2 in test [2] is 9 h.

Take `Cc1ccc(-n2cc(CC(=O)O)c3ccc(C)nc32)c(Cc2c(C)cnn2CC2CC2)c1`: in test [1] (read-out: IC50), the IC50 worked out at 4 nM. The molecule further showed a T1/2 in test [2] of 10 h.

`Cc1ccc2c(CC(=O)O)cn(-c3ccc(Cl)cc3Cc3cc(C)nn3C)c2n1`: the concentration for half-maximal inhibition (IC50) result in test [1] (cho.k1) is recorded as “Not Active”.

Consider `Cc1ccc(-n2cc(CC(=O)O)c3ccc(C)nc32)c(Cn2ccnc2-c2ccccc2)c1`, for which the IC50 in test [1] (read-out: IC50) was 30 nM. This molecule also came in with a T1/2 in test [2] of 1.2 h.

Turning to `Cc1ccc2c(n1)c(-c1ccc(C(F)(F)F)cc1Cc1c(C)noc1C)cn2CC(=O)O`, in test [1] (read-out: IC50), the IC50 is 5 nM. Further, the T1/2 in test [2] was found to be 5 h.

For `Cc1nnc(C2CC2)n1Cc1cc(C(F)(F)F)ccc1-n1cc(CC(=O)O)c2ccc(F)cc21`, the IC50 in test [1] (read-out: IC50) turned out to be 9 nM. The T1/2 in test [2] is 16 h.

In the case of `Cc1ccn2c(CC(=O)O)cc(-c3ccc(C(F)(F)F)cc3Cc3c(C)noc3C3CC3)c2n1`, the IC50 in test [1] (read-out: IC50) turned out to be 5 nM. Further, the T1/2 in test [2] was 12 h.

Consider `Cc1noc(C)c1-c1cccc(-c2c(C)n(CC(=O)O)c3ccc(F)cc23)c1`, for which the IC50 in test [1] (read-out: IC50) is 6 nM. This molecule gave a T1/2 in test [2] of 18 h.

`Cc1noc(C2CC2)c1Cc1cc(F)ccc1-c1cn(CC(=O)O)c2ccc(C(F)(F)F)cc12`: in test [1] (read-out: IC50), the IC50 is 37 nM. In test [2], this molecule showed a T1/2 of 27 h.

Consider `Cc1noc(C2CC2)c1Cc1cc(C(F)(F)F)ccc1-c1cn(CC(=O)O)c2ccc(F)cc12`, for which the IC50 in test [1] (read-out: IC50) worked out at 37 nM. The molecule also came in with a T1/2 in test [2] of 8 h.

As for `Cc1ccc2c(CC(=O)O)cn(-c3ccc(Cl)cc3Cn3c(C)nnc3C3CC3)c2n1`, the IC50 in test [1] (read-out: IC50) worked out at 56 nM. Further, the T1/2 in test [2] was 20 h.

For the molecule `Cc1ccc2c(CC(=O)O)cn(-c3ccc(F)cc3Cc3c(C)cnn3C)c2n1`, in test [1] (read-out: IC50), the IC50 was found to be 10 nM. This molecule also had a T1/2 in test [2] of 1.2 h.

As to `Cc1ccc(-n2cc(CC(=O)O)c3ccc(C)nc32)c(Cn2nncc2C)c1`, in test [1] (read-out: IC50), the IC50 amounted to 150 nM.

For the molecule `Cc1ccc2c(CC(=O)O)cn(-c3ccccc3Cn3nc(C)nc3C)c2n1`, the IC50 result in test [1] (cho.k1) is reported as “Not Active”.

On to `Cc1ccc2c(CC(=O)O)cn(-c3ccccc3Cn3ccnc3)c2n1`, for which the IC50 in test [1] (read-out: IC50) was 580 nM.

Turning to `Cc1noc(C)c1Cc1cc(C(F)(F)F)ccc1-c1cn(CC(=O)O)c2ccc(F)cc12`, in test [1] (read-out: IC50), the IC50 was 20 nM. The T1/2 in test [2] amounted to 10 h.

Turning to `Cc1ccc2c(CC(=O)O)cn(-c3ccc(Cl)cc3Cc3c(C)noc3Cc3ccccc3)c2n1`, the IC50 in test [1] (read-out: IC50) was 3 nM. The T1/2 in test [3] was 45 h.

`Cc1cn(Cc2ccccc2-n2cc(CC(=O)O)c3ccc(C)nc32)c(C)n1`: the IC50 entry in test [1] (cho.k1) is “Not Active”.

As for `CCN(Cc1cc(C(F)(F)F)ccc1-n1cc(CC(=O)O)c2ccc(C)nc21)C(C)=O`, the IC50 in test [1] (read-out: IC50) was 10 nM. In test [2], the T1/2 is 6 h.

On to `Cc1ccc2c(CC(=O)O)cc(-c3ccc(C(F)(F)F)cc3Cc3c(C)noc3C3CC3)n2n1`, for which the IC50 in test [1] (read-out: IC50) was 3 nM. The T1/2 in test [2] is 14 h.

As for `Cc1ccc(-n2cc(CC(=O)O)c3ccc(C)nc32)c(Cn2ccnc2C)c1`, the IC50 in test [1] (read-out: IC50) was 250 nM.

`Cc1ccc2c(CC(=O)O)cn(-c3ccccc3Cn3ccnn3)c2n1`: the IC50 in test [1] (read-out: IC50) was determined as 1800 nM.

In the case of `Cc1ccc2c(CC(=O)O)cn(-c3ccc(C(F)(F)F)cc3Cc3c(C4CC4)noc3C3CC3)c2n1`, the IC50 in test [1] (read-out: IC50) came to 3 nM. The same molecule showed a T1/2 in test [2] of 23 h.

As to `Cc1ccc2c(CC(=O)O)cn(-c3ccc(C(F)(F)F)cc3Cc3c(C)noc3C3CC3)c2n1`, in test [1] (read-out: IC50), the IC50 is 1 nM. Further, the T1/2 in test [2] came to 13 h.

Consider `COc1ccc(CC(=O)O)cc1-c1ccc(C(F)(F)F)cc1Cn1c(C)nnc1C1CC1`, for which the IC50 in test [1] (read-out: IC50) is 27 nM. In test [2], the T1/2 is 1.5 h.

Regarding `Cc1ccc2c(CC(=O)O)cn(-c3ccc(Cl)cc3Cc3cncnc3)c2n1`, the IC50 in test [1] (read-out: IC50) was 1400 nM.

In the case of `Cc1ccc(-n2cc(CC(=O)O)c3ccc(Cc4ccccc4)nc32)c(Cn2c(C)nnc2C)c1`, the IC50 in test [1] (read-out: IC50) came to 7 nM. The T1/2 in test [2] turned out to be 20 h.

`Cc1ccc2c(CC(=O)O)cn(-c3ccc(Cl)cc3Cn3c(C)nnc3CCc3ccccc3)c2n1`: the IC50 in test [1] (read-out: IC50) is 9 nM. In test [2], this molecule gave a T1/2 of 26 h.

On to `Cc1c(-c2cccc3c2CCN(S(C)(=O)=O)C3)c2cc(F)ccc2n1CC(=O)O`, for which the IC50 in test [1] (read-out: IC50) came out at 4 nM. This molecule registered a T1/2 in test [2] of 1.7 h.

Take `Cc1ccc2c(CC(=O)O)cn(-c3ccc(Cl)cc3Cn3c(C)nnc3Cc3ccccc3)c2n1`: the IC50 in test [1] (read-out: IC50) came to 11 nM. In test [2], this molecule returned a T1/2 of 26 h.

On to `Cc1ccc2c(CC(=O)O)cn(-c3ccc(F)cc3Cc3c(C)noc3C)c2n1`, for which the IC50 in test [1] (read-out: IC50) turned out to be 2 nM. For the same molecule, the T1/2 in test [2] turned out to be 3 h.

Consider `Cc1ccc2c(CC(=O)O)cn(-c3ccc(Cl)cc3Cc3cncnc3C(C)C)c2n1`, for which the IC50 in test [1] (read-out: IC50) is 170 nM.
